# Results reported in PubChem BioAssay (NCI).
# “And” between values parts separate entries of the source, which are not always exact repeats. Equal values may be shown once.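 How tested: cells in 96-well plates exposed to compound for 48 hours at five concentrations. At the GI50, growth is halved. TGI: concentration producing complete growth inhibition.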
# What was measured:
# Experiment in all cases: inhibition of tumour cell growth, NCI panel, 48 h
# 786-0 renal = tested on: 786-0 renal
# A498 renal = tested on: A498 renal
# A549 NSCLC = tested on: A549 NSCLC
# ACHN renal = tested on: ACHN renal
# BT-549 breast = tested on: BT-549 breast
# CAKI-1 renal = tested on: CAKI-1 renal
# CCRF-CEM leukemia = tested on: CCRF-CEM leukemia
# COLO 205 colon = tested on: COLO 205 colon
# DU-145 prostate = tested on: DU-145 prostate
# EKVX NSCLC = tested on: EKVX NSCLC
# HCC-2998 colon = tested on: HCC-2998 colon
# HCT-116 colon = tested on: HCT-116 colon
# HCT-15 colon = tested on: HCT-15 colon
# HL-60(TB) leukemia = tested on: HL-60(TB) leukemia
# HOP-62 NSCLC = tested on: HOP-62 NSCLC
# HOP-92 NSCLC = tested on: HOP-92 NSCLC
# HS 578T breast = tested on: HS 578T breast
# HT29 colon = tested on: HT29 colon
# IGROV1 ovarian = tested on: IGROV1 ovarian
# K-562 leukemia = tested on: K-562 leukemia
# KM12 colon = tested on: KM12 colon
# LOX IMVI melanoma = tested on: LOX IMVI melanoma
# M14 melanoma = tested on: M14 melanoma
# MALME-3M melanoma = tested on: MALME-3M melanoma
# MCF7 breast = tested on: MCF7 breast
# MDA-MB-231 breast = tested on: MDA-MB-231 breast
# MDA-MB-435 = tested on: MDA-MB-435
# MDA-MB-468 breast = tested on: MDA-MB-468 breast
# MOLT-4 leukemia = tested on: MOLT-4 leukemia
# NCI-H226 lung = tested on: NCI-H226 lung
# NCI-H23 lung = tested on: NCI-H23 lung
# NCI-H460 lung = tested on: NCI-H460 lung
# NCI-H522 lung = tested on: NCI-H522 lung
# NCI/ADR-RES ovarian = tested on: NCI/ADR-RES ovarian
# OVCAR-3 ovarian = tested on: OVCAR-3 ovarian
# OVCAR-4 ovarian = tested on: OVCAR-4 ovarian
# OVCAR-5 ovarian = tested on: OVCAR-5 ovarian
# OVCAR-8 ovarian = tested on: OVCAR-8 ovarian
# PC-3 prostate = tested on: PC-3 prostate
# RPMI-8226 leukemia = tested on: RPMI-8226 leukemia
# SF-268 CNS = tested on: SF-268 CNS
# SF-295 CNS = tested on: SF-295 CNS
# SF-539 CNS = tested on: SF-539 CNS
# SK-MEL-2 melanoma = tested on: SK-MEL-2 melanoma
# SK-MEL-28 melanoma = tested on: SK-MEL-28 melanoma
# SK-MEL-5 melanoma = tested on: SK-MEL-5 melanoma
# SK-OV-3 ovarian = tested on: SK-OV-3 ovarian
# SN12C renal = tested on: SN12C renal
# SNB-19 CNS = tested on: SNB-19 CNS
# SNB-75 CNS = tested on: SNB-75 CNS
# SR leukemia = tested on: SR leukemia
# SW-620 colon = tested on: SW-620 colon
# T-47D breast = tested on: T-47D breast
# TK-10 renal = tested on: TK-10 renal
# U251 CNS = tested on: U251 CNS
# UACC-257 melanoma = tested on: UACC-257 melanoma
# UACC-62 melanoma = tested on: UACC-62 melanoma
# UO-31 renal = tested on: UO-31 renal
structure (smiles),measurement,setting,value
COCCOCCOCCOc1ccc(-n2cc(CCCN(CCNc3ccnc4cc(Cl)ccc34)C(=O)CCC(=O)O[C@@H]3O[C@@H]4OC5(C)CC[C@H]6[C@H](C)CC[C@@H]([C@H]3C)[C@@]46OO5)nn2)cc1,GI50,786-0 renal,5.54 µM
same,TGI,786-0 renal,> 10.3 µM
same,GI50,A498 renal,> 10.3 µM
same,TGI,A498 renal,> 10.3 µM
same,GI50,A549 NSCLC,6.09 µM
same,TGI,A549 NSCLC,> 10.3 µM
same,GI50,ACHN renal,3.97 µM
same,TGI,ACHN renal,> 10.3 µM
same,GI50,BT-549 breast,0.771 µM
same,TGI,BT-549 breast,6.85 µM
same,GI50,CAKI-1 renal,> 10.3 µM
same,TGI,CAKI-1 renal,> 10.3 µM
same,GI50,CCRF-CEM leukemia,1.07 µM
same,TGI,CCRF-CEM leukemia,> 10.3 µM
same,GI50,COLO 205 colon,1.12 µM
same,TGI,COLO 205 colon,> 10.3 µM
same,GI50,DU-145 prostate,> 10.3 µM
same,TGI,DU-145 prostate,> 10.3 µM
same,GI50,EKVX NSCLC,1.67 µM
same,TGI,EKVX NSCLC,> 10.3 µM
same,GI50,HCC-2998 colon,7.16 µM
same,TGI,HCC-2998 colon,> 10.3 µM
same,GI50,HCT-116 colon,0.434 µM
same,TGI,HCT-116 colon,> 10.3 µM
same,GI50,HCT-15 colon,0.388 µM
same,TGI,HCT-15 colon,> 10.3 µM
same,GI50,HL-60(TB) leukemia,0.353 µM
same,TGI,HL-60(TB) leukemia,2.37 µM
same,GI50,HOP-62 NSCLC,> 10.3 µM
same,TGI,HOP-62 NSCLC,> 10.3 µM
same,GI50,HOP-92 NSCLC,1.09 µM
same,TGI,HOP-92 NSCLC,8.11 µM
same,GI50,HS 578T breast,2.54 µM
same,TGI,HS 578T breast,> 10.3 µM
same,GI50,HT29 colon,1.23 µM
same,TGI,HT29 colon,> 10.3 µM
same,GI50,IGROV1 ovarian,4.54 µM
same,TGI,IGROV1 ovarian,> 10.3 µM
same,GI50,K-562 leukemia,0.434 µM
same,TGI,K-562 leukemia,> 10.3 µM
same,GI50,KM12 colon,0.792 µM
same,TGI,KM12 colon,> 10.3 µM
same,GI50,LOX IMVI melanoma,0.731 µM
same,TGI,LOX IMVI melanoma,> 10.3 µM
same,GI50,M14 melanoma,3.19 µM
same,TGI,M14 melanoma,> 10.3 µM
same,GI50,MALME-3M melanoma,1.73 µM
same,TGI,MALME-3M melanoma,4.2 µM
same,GI50,MCF7 breast,1.04 µM
same,TGI,MCF7 breast,> 10.3 µM
same,GI50,MDA-MB-231 breast,> 10.3 µM
same,TGI,MDA-MB-231 breast,> 10.3 µM
same,GI50,MDA-MB-435,1.25 µM
same,TGI,MDA-MB-435,> 10.3 µM
same,GI50,MDA-MB-468 breast,1.01 µM
same,TGI,MDA-MB-468 breast,> 10.3 µM
same,GI50,MOLT-4 leukemia,0.408 µM
same,TGI,MOLT-4 leukemia,> 10.3 µM
same,GI50,NCI-H226 lung,3.18 µM
same,TGI,NCI-H226 lung,> 10.3 µM
same,GI50,NCI-H23 lung,1.77 µM
same,TGI,NCI-H23 lung,> 10.3 µM
same,GI50,NCI-H460 lung,10.1 µM
same,TGI,NCI-H460 lung,> 10.3 µM
same,GI50,NCI-H522 lung,0.754 µM
same,TGI,NCI-H522 lung,> 10.3 µM
same,GI50,NCI/ADR-RES ovarian,2.45 µM
same,TGI,NCI/ADR-RES ovarian,> 10.3 µM
same,GI50,OVCAR-3 ovarian,0.883 µM
same,TGI,OVCAR-3 ovarian,> 10.3 µM
same,GI50,OVCAR-4 ovarian,2 µM
same,TGI,OVCAR-4 ovarian,> 10.3 µM
same,GI50,OVCAR-5 ovarian,1.7 µM
same,TGI,OVCAR-5 ovarian,> 10.3 µM
same,GI50,OVCAR-8 ovarian,1.83 µM
same,TGI,OVCAR-8 ovarian,> 10.3 µM
same,GI50,PC-3 prostate,0.301 µM
same,TGI,PC-3 prostate,> 10.3 µM
same,GI50,RPMI-8226 leukemia,0.386 µM
same,TGI,RPMI-8226 leukemia,> 10.3 µM
same,GI50,SF-268 CNS,7.69 µM
same,TGI,SF-268 CNS,> 10.3 µM
same,GI50,SF-295 CNS,3.63 µM
same,TGI,SF-295 CNS,> 10.3 µM
same,GI50,SF-539 CNS,4.97 µM
same,TGI,SF-539 CNS,> 10.3 µM
same,GI50,SK-MEL-2 melanoma,5.76 µM
same,TGI,SK-MEL-2 melanoma,> 10.3 µM
same,GI50,SK-MEL-28 melanoma,4.01 µM
same,TGI,SK-MEL-28 melanoma,> 10.3 µM
same,GI50,SK-MEL-5 melanoma,1.18 µM
same,TGI,SK-MEL-5 melanoma,8.81 µM
same,GI50,SK-OV-3 ovarian,> 10.3 µM
same,TGI,SK-OV-3 ovarian,> 10.3 µM
same,GI50,SN12C renal,4.77 µM
same,TGI,SN12C renal,> 10.3 µM
same,GI50,SNB-19 CNS,> 10.3 µM
same,TGI,SNB-19 CNS,> 10.3 µM
same,GI50,SNB-75 CNS,> 10.3 µM
same,TGI,SNB-75 CNS,> 10.3 µM
same,GI50,SR leukemia,0.375 µM
same,TGI,SR leukemia,3.34 µM
same,GI50,SW-620 colon,0.654 µM
same,TGI,SW-620 colon,> 10.3 µM
same,GI50,T-47D breast,0.42 µM
same,TGI,T-47D breast,> 10.3 µM
same,GI50,TK-10 renal,> 10.3 µM
same,TGI,TK-10 renal,> 10.3 µM
same,GI50,U251 CNS,4.31 µM
same,TGI,U251 CNS,> 10.3 µM
same,GI50,UACC-257 melanoma,1.86 µM
same,TGI,UACC-257 melanoma,> 10.3 µM
same,GI50,UACC-62 melanoma,1.18 µM
same,TGI,UACC-62 melanoma,> 10.3 µM
same,GI50,UO-31 renal,1.37 µM
same,TGI,UO-31 renal,> 10.3 µM
Cc1cccc(N2CCN(C3=C(Cl)C(=O)c4ncccc4C3=O)CC2)c1,GI50,MDA-MB-468 breast,1.54 µM
same,TGI,MDA-MB-468 breast,3.08 µM
COc1cc2c(O[C@@H]3OC[C@H](OC(C)=O)[C@H](OC(C)=O)[C@H]3O)c3c(c(-c4ccc5c(c4)OCO5)c2cc1OC)C(=O)OC3,GI50,MDA-MB-468 breast,0.731 µM
same,TGI,MDA-MB-468 breast,> 10 µM
NC(CSC(c1ccccc1)(c1ccccc1)c1ccccc1)C(=O)O (centres undefined),GI50,MDA-MB-468 breast,0.406 µM
same,TGI,MDA-MB-468 breast,6.24 µM
Cc1cc(NC(=O)NCCOc2ccc(N3C(N)=NC(N)=NC3(C)C)cc2Cl)ccc1S(=O)(=O)F,GI50,MDA-MB-468 breast,1.46 µM
same,TGI,MDA-MB-468 breast,27.6 µM
O=C1c2c(c3c4cc(F)ccc4oc3c3[nH]c4ccccc4c23)C(=O)N1O,GI50,MDA-MB-468 breast,2.14 µM
same,TGI,MDA-MB-468 breast,7.93 µM
COc1ccc(-n2nc(C)c3c(Nc4ccc(NC(=O)Nc5cccc(C(F)(F)F)c5)cc4)ncnc32)cc1,GI50,MDA-MB-468 breast,2.02 µM
same,TGI,MDA-MB-468 breast,4.9 µM
CC(=O)CC[N+](C)(C)C,GI50,MDA-MB-468 breast,1.75 µM
same,TGI,MDA-MB-468 breast,4.39 µM
CCc1nc(N)nc(N)c1C#CC(C)c1ccc(-c2ccncc2)cc1Cl (centres undefined),TGI,MDA-MB-468 breast,1.57 µM and 6.46 µM
O=[N+]([O-])c1ccccc1/C=N\NC(=S)N/N=C/c1ccccc1[N+](=O)[O-],GI50,MDA-MB-468 breast,1.4 µM
same,TGI,MDA-MB-468 breast,21.3 µM
CN[C@@H](C)C(=O)N[C@H](C(=O)N1CCC[C@H]1c1nc(C(=O)c2ccc(F)cc2)cs1)C1CCCCC1,GI50,MDA-MB-468 breast,0.591 µM
same,TGI,MDA-MB-468 breast,20.3 µM
O=[N+]([O-])c1ccc(Sc2cccc[n+]2[O-])c2nonc12,GI50,MDA-MB-468 breast,5.78 µM
same,TGI,MDA-MB-468 breast,20.7 µM
Cc1ccc(S(=O)(=O)c2nc(-c3ccc(F)cc3)oc2S(C)(=O)=O)cc1,GI50,MDA-MB-468 breast,2.5 µM
same,TGI,MDA-MB-468 breast,> 19.8 µM
